Test results reported in patent EP4656642A1, “ESTROGEN RECEPTOR PROTEOLYSIS TARGETING CHIMERA COMPOUND AND USE THEREOF” (GAN & LEE PHARM CO., LTD, priority 2023, dated 2024).

Key:
Format in all cases: cell-based
ERα [1] = biological target: T1, ERα (Homo sapiens, UniProt P03372); experiment: Degradation of ERα in T-47D cells (immunoblotting, 4 h); set-up: host or cells: T-47D
T1 sequence (P03372 1-595): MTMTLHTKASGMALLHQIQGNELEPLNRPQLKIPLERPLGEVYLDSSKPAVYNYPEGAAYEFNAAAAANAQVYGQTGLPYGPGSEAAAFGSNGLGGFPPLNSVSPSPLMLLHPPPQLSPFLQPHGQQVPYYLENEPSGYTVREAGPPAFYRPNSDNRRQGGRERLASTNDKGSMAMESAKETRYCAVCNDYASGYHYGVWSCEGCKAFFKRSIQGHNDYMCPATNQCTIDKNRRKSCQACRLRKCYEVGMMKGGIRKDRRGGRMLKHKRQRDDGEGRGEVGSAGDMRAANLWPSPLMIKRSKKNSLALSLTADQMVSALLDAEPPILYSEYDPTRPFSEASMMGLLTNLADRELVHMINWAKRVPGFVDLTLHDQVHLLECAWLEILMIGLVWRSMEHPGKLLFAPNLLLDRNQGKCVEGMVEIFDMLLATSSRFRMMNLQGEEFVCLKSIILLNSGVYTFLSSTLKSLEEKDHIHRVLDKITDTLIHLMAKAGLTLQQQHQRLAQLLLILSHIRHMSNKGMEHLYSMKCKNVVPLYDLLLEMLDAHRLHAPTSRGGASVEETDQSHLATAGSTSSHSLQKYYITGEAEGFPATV
Experimental: (§1) T-47D cells were inoculated into 6-well plates at a density of 3×10^5 cells/well and cultured at 37°C, 5% CO2 for 24 h. After the cells were attached to the wall, 1µL of the compound solution in dimethyl sulfoxide (final concentration 0.15-1000 nM) was added and continued to be cultured in the incubator with 5% CO2 at 37°C for 4 h. After 4 h, the culture medium was discarded, and each well was washed once with pre-cooled 1×DPBS, and the cells were lysed with a mixture of 50 µL of RIPA lysis buffer (P0013B, Beyotime) and 1× protease inhibitor (P1005, Beyotime), and then centrifuged at 14,000 g for 30 min at 4°C after resting on ice for 20 min, and the supernatant was carefully collected to detect the protein level of ERα by protein immunoblotting (Immunoblotting).

ERα [2] = biological target: T1, ERα; experiment: Degradation of ERα in MCF-7 cells (immunoblotting, 4 h)
Experimental: as §1, with “MCF-7” for “T-47D”, “24h.” for “24 h.”, “0.15-1000nM)” for “0.15-1000 nM)”, “in” for “in the”, “incubator at 37°C” for “incubator”, “CO2” for “CO2 at 37°C”
Protein immunoblotting: The total protein concentration in the collected cell lysate supernatant was determined by BCA Protein Concentration Assay Kit (Enhanced) (P0009, Beyotime). According to the total protein concentration detected by BCA, the protein was adjusted to 1 µg/µL with RIPA lysis buffer and 5× SDS-PAGE protein loading buffer (MB01015, Genscript), and the protein was denatured by water bath at 95°C for 5 min, and then centrifuged after denaturation to enrich the condensate on the wall of the centrifuge tubes as a loading sample. […] At the end of electrophoresis, the proteins in the SDS-PAGE gels were transferred to a PVDF membrane at a constant voltage of 100 V for 60 min. After that, the PVDF membrane corresponding to ERα protein and internal reference protein was cut out and incubated in 1×QµickBlock blocking solution (P0252, Beyotime) for 30 min at room temperature on a shaker. […] Protein profiles were analyzed by Image Studio Lite analysis software for grayscale values. Grayscale correction values were calculated for each sample using the Formula: corrected grayscale value = grayscale value of the target protein /corresponding grayscale value of the internal reference. The degradation rate for the compounds was then calculated by comparing the corrected grayscale values of the compound group to the control group. Table 7 Degradation rate (%) of ERα by the PROTAC compounds of the present disclosure and positive control sample in MCF-7 cells

MCF-7 cells = experiment: Inhibition of cell proliferation of MCF-7 cells (CCK-8, 9 days); conditions: treated for 9 days, CCK-8 kit (Table 6)
Description: Test Example 4 Inhibitory effect of the PROTAC compounds disclosed in the present disclosure on cell proliferation of MCF-7 cells
The complete medium required for MCF-7 cells (source ATCC) was DMEM (gibco, Product number :11995-065) basal medium containing 10% fetal bovine serum. MCF-7 cells were inoculated in 96-well plates at a density of 800 cells/well, and different concentrations of the PROTAC compounds 1-55 provided in the embodiments of the present disclosure and a positive control sample ARV-471 (source: Innochem) were prepared to treat cells, and cells were treated at 37°C in a cell culture incubator with 5% CO2 for 9 days. Cell viability was detected using a CCK -8 kit (Beyotime , Product number: C0040) according to the manufacturer's instruction. […] Table 5 IC50 values for inhibition of the proliferation of MCF-7 cells by the PROTAC compounds of the present disclosure and positive control sample

Compound	Degradation rate (%) of ERα in T-47D cells (ERα [1]; 1nM compound) [%]	Degradation rate (%) of ERα in T-47D cells (ERα [1]; 10nM compound) [%]	Degradation rate (%) of ERα in MCF-7 cells (ERα [2]; 1nM compound) [%]	Degradation rate (%) of ERα in MCF-7 cells (ERα [2]; 10nM compound) [%]	IC50 (MCF-7 cells) [µM]	IC50 (MCF-7 cells; Homo sapiens, MCF7, 216 h) [µM]
O=C1CCC(N2Cc3c(ccc4c3OCC43CCN(C4CCN(C(=O)C5CCN(c6ccc(C7c8ccc(O)cc8CCC7c7ccccc7)cc6)CC5)C(C(=O)N5CCCC5)C4)CC3)C2=O)C(=O)N1 (stereo not drawn) [K30]	63	73	48	55	0.00734	
C[C@]12CC[C@@H]3c4ccc(O)cc4CC[C@H]3[C@@H]1CC[C@@H]2O [E2]						0.0348
O=C1CCC(N2Cc3c(ccc4c3OCC43CCN(C4CCN(S(=O)(=O)C5CCN(c6ccc([C@@H]7c8ccc(O)cc8CC[C@@H]7c7ccccc7)cc6)CC5)CC4)CC3)C2=O)C(=O)N1 (stereo partly drawn) [A122]	56	65	40	51	14.8	
O=C1CCC(N2C(=O)c3ccc4c(c3C2=O)OCC42CCN(C3CC4(CCN(c5ccc([C@@H]6c7ccc(O)cc7CC[C@@H]6c6ccccc6)cc5)CC4)C3)CC2)C(=O)N1 (stereo partly drawn) [L17]	24	23	-2	10		
CN(C[C@H]1CC[C@H](C(=O)N2CCC3(CC2)COc2c3ccc3c2CN(C2CCC(=O)NC2=O)C3=O)CC1)[C@@H]1CCN(c2ccc([C@@H]3c4ccc(O)cc4CC[C@@H]3c3ccccc3)cc2)C[C@@H]1F (stereo partly drawn) [D12]	55	81	39	61		
O=C1CCC(N2Cc3cc4c(cc3C2=O)CCC2(CN(C3CN(C5CCN(c6ccc([C@@H]7c8ccc(O)cc8CC[C@@H]7c7ccccc7)cc6)CC5)C3)C2)O4)C(=O)N1 (stereo partly drawn) [A57]	34	43			2.79	
O=C1CCC(N2Cc3cc4c(cc3C2=O)CCC2(CN(CC3CCC5(CC3)CCN(c3ccc([C@@H]6c7ccc(O)cc7CC[C@@H]6c6ccccc6)cc3)CC5)C2)O4)C(=O)N1 (stereo partly drawn) [A38]			-1	-24	0.24	
O=C1CCC(N2Cc3c(ccc4c3OCC43CCN(C[C@H]4CC[C@H](OC5CCN(c6ccc([C@@H]7c8ccc(O)cc8CC[C@@H]7c7ccccc7)cc6)CC5)CC4)CC3)C2=O)C(=O)N1 (stereo partly drawn) [G24]	47	81				
O=C1CCC(N2Cc3cc4c(cc3C2=O)OC2(CC4)CN(C3CN(C4CCN(c5ccc([C@@H]6c7ccc(O)cc7CC[C@@H]6c6ccccc6)cc5)CC4)C3)C2)C(=O)N1 (stereo partly drawn) [A56]	38	38			2.79	

Second part, the molecule after the results:

Degradation rate (%) of ERα in T-47D cells (ERα [1]; 1nM compound) [%]	Degradation rate (%) of ERα in T-47D cells (ERα [1]; 10nM compound) [%]	Degradation rate (%) of ERα in MCF-7 cells (ERα [2]; 1nM compound) [%]	Degradation rate (%) of ERα in MCF-7 cells (ERα [2]; 10nM compound) [%]	IC50 (MCF-7 cells) [µM]	IC50 (MCF-7 cells; Homo sapiens, MCF7, 216 h) [µM]	Compound
73	87	28	62			O=C1CCC(N2Cc3c(ccc4c3OCC43CCN(CC(=O)N4CCC5(CC4)CCN(c4ccc([C@@H]6c7ccc(O)cc7CC[C@@H]6c6ccccc6)cc4)CC5)CC3)C2=O)C(=O)N1 (stereo partly drawn) [A74]
		37	66	32.4		O=C1CCC(N2Cc3c(ccc4c3OCC43CCN(S(=O)(=O)[C@H]4CC[C@H](C(=O)N5CCN(c6ccc([C@@H]7c8ccc(O)cc8CC[C@@H]7c7ccccc7)cc6)CC5)CC4)CC3)C2=O)C(=O)N1 (stereo partly drawn) [G26]
-6	-15	-13	-16			O=C1CCC(N2C(=O)c3cc4c(cc3C2=O)OC2(CC4)CN(CC3CCN(c4ccc([C@@H]5c6ccc(O)cc6CC[C@@H]5c5ccccc5)cc4)CC3)C2)C(=O)N1 (stereo partly drawn) [H1]
				0.0148		CC1(C(=O)N2CCC(N3CCC4(CC3)COc3c4ccc4c3CN(C3CCC(=O)NC3=O)C4=O)CC2)CCN(c2ccc([C@@H]3c4ccc(O)cc4CC[C@@H]3c3ccccc3)cc2)CC1 (stereo partly drawn) [N 1]
